Drawing on patent publication US20240246980A1, “MODULATORS OF MAS-RELATED G-PROTEIN RECEPTOR D AND RELATED PRODUCTS AND METHODS” (Escient Pharmaceuticals, Inc., priority 2022, published 2024), this text covers IC50 for 18 compounds.

In general, IC50 refers to the concentration that gives 50% inhibition. Low readings indicate greater potency in that assay, high ones weaker potency in that assay.

The assay addresses human MRGPRD (Homo sapiens, UniProt Q8TDS7). The assay can be described thus: MRGPRD antagonist activity, IP-One HTRF assay in CHO cells stably expressing human MRGPRD (versus 100 μM β-Alanine agonist). It is filed as cell-based. The gist of the method: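 Cells (20,000/well, plated overnight) received antagonist and agonist in buffer with 5.7 mM Tris-HCl, 43 mM NaCl and 50 mM LiCl at pH 8. Incubation ran 1 h at 37 °C, then 1 h at room temperature, before IP-1 HTRF detection. IC50 was fitted from the HTRF ratio, and percent antagonism was taken relative to the maximum efficacy response, given as averages with SEM.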
Background: TR-FRET usually uses a lanthanide donor and a delayed reading to cut background.

Chain of human MRGPRD (Q8TDS7 whole entry): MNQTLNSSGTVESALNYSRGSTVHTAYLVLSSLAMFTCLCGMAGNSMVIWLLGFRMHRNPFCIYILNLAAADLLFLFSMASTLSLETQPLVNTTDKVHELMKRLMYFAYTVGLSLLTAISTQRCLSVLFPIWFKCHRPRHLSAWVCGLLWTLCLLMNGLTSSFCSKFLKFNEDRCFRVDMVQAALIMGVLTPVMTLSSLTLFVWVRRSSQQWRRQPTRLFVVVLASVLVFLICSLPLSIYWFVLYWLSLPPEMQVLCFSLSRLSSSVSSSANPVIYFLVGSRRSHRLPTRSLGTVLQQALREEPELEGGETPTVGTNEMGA

For the compound `COc1cccc(-c2nc([C@@H]3CCCN(C(=O)Nc4cnc5ccccn45)C3)n3ccccc23)c1` [Compound 5-62], the concentration for half-maximal inhibition (IC50) was under 100 nM.

As to `CN(C)c1ccc(NC(=O)N2CCC[C@@H](c3nc(-c4ccc5ccccc5c4)c4ccccn34)C2)cc1` [Compound 10-34], the IC50 lay in the range of 1000 to 3000 nM.

Turning to `CN(C)C(=O)c1cccc(-c2nc([C@@H]3CCCN(C(=O)Nc4ccc(N(C)C)cc4)C3)n3ccccc23)c1` [Compound 10-71], the IC50 was under 100 nM.

As for `COc1cccc(-c2nc([C@@H]3CCCN(C(=O)Nc4ccc5c(cnn5C)c4)C3)n3ccccc23)c1` [Compound 1-32], the concentration for half-maximal inhibition (IC50) is under 100 nM.

`O=C(Nc1ccccc1F)N1CCCC(c2nc(-c3ccc(F)cc3)c3ccccn23)C1` (stereo not drawn) [Compound 11-8] displayed an IC50 of 1000 to 3000 nM.

Compound `COc1cccc(-c2nc(C3CCCN(C(=O)Cc4ccccc4F)C3)n3ccccc23)c1` (stereo not drawn) [Compound 12-1, 2-(2-fluorophenyl)-1-(3-(1-(3-methoxyphenyl)imidazo[1,5-a]pyridin-3-yl)piperidin-1-yl)ethan-1-one] had a half-inhibitory concentration (IC50) of 100 to 500 nM.

The compound `COc1cccc(-c2nc([C@@H]3CCCN(C(=O)Nc4cccc(C(F)(F)F)c4)C3)n3ccccc23)c1` [Compound 1-22] yielded a 50% inhibitory concentration (IC50) of 500 to 1000 nM.

Compound `COc1cccc(-c2nc([C@@H]3CCCN(C(=O)Nc4ccc(CO)cc4)C3)n3ccccc23)c1` [Compound 5-7] came in with a 50% inhibitory concentration (IC50) of under 100 nM.

For the compound `COc1cccc(-c2nc([C@@H]3CCCN(C(=O)NC4(c5ccccc5)CC4)C3)n3ccccc23)c1` [Compound 5-55], the IC50 is under 100 nM.

The compound `CCc1cccc(NC(=O)N2CCCC(c3nc(-c4cccc(OC)c4)c4ccccn34)C2)c1` (stereo not drawn) [Compound 3-18] had a half-inhibitory concentration (IC50) of over 3000 nM.

The compound `COc1cccc(-c2nc([C@@H]3CCCN(C(=O)Nc4ccn(C)n4)C3)n3ccccc23)c1` [Compound 5-44] yielded a concentration for half-maximal inhibition (IC50) of under 100 nM.

The compound `COc1cccc(-c2nc([C@@H]3CCCN(C(=O)Nc4ccc(C)cc4)C3)n3ccccc23)c1` [Compound 1-18] registered a 50% inhibitory concentration (IC50) of 100 to 500 nM.

In turn, `CN(C)c1ccc(NC(=O)N2CCC[C@H](c3nc(-c4cccc(F)c4)c4ccccn34)C2)cc1` [Compound 10-28] gave a concentration for half-maximal inhibition (IC50) of 1000 to 3000 nM.

Compound `COc1cccc(-c2nc([C@@H]3CCCN(C(=O)Nc4cccc(OC(F)(F)F)c4)C3)n3ccccc23)c1` [Compound 1-23] displayed a half-inhibitory concentration (IC50) of 500 to 1000 nM.

As for `COc1cccc(-c2nc(C3CCCN(C(=O)Nc4ccc(C)cc4F)C3)n3ccccc23)c1` (stereo not drawn) [Compound 5-3], the half-maximal inhibitory concentration (IC50) lay within 500 to 1000 nM.

As for `COc1cccc(-c2nc([C@@H]3CCCN(S(=O)(=O)c4cccc(F)c4)C3)n3ccccc23)c1` [Compound 16-7], the IC50 lay within 100 to 500 nM.

`COc1cccc(-c2nc([C@@H]3CCCN(C(=O)Nc4ccc(F)cc4)C3)n3ccccc23)c1` [Compound 5-10] displayed a concentration for half-maximal inhibition (IC50) of 100 to 500 nM.

`COc1cccc(-c2nc(C3CCCN(C(=O)Cc4ccc(F)cc4)C3)n3ccccc23)c1` (stereo not drawn) [Compound 12-2] returned an IC50 of 500 to 1000 nM.
